Assay [1] addresses T1, Cytoplasmic tyrosine-protein kinase BMX (Homo sapiens) (UniProt P51813).
T1 sequence (whole entry): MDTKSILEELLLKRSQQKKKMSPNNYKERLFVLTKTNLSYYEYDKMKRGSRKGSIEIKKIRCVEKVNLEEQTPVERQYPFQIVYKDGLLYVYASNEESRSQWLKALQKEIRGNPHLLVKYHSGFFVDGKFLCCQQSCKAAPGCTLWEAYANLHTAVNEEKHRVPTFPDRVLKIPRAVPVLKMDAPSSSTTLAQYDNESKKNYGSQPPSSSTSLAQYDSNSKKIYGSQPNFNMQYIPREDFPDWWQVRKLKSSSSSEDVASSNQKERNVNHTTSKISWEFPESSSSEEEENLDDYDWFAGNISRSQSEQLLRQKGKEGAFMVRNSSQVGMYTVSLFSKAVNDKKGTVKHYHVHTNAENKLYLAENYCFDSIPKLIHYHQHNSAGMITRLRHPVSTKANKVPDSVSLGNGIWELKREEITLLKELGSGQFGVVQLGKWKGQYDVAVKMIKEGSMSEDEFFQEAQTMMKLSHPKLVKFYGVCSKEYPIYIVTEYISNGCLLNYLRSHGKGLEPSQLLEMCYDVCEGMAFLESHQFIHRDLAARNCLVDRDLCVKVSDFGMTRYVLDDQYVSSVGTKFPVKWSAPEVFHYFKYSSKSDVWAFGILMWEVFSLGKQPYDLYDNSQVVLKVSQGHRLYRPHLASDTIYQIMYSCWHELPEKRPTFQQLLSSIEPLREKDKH
The experiment in a line: Inhibition of Bmx at 1 uM; values are per cent of control.

Assay [2] concerns the target Ephrin type-A receptor 7 (Homo sapiens) (UniProt Q15375). Nature of the assay: Inhibition of EphA7 at 0.1 uM; values are per cent of control.
Assay [3] deals with T2, Ephrin type-B receptor 2 (Homo sapiens) (UniProt P29323).
T2 sequence (whole entry): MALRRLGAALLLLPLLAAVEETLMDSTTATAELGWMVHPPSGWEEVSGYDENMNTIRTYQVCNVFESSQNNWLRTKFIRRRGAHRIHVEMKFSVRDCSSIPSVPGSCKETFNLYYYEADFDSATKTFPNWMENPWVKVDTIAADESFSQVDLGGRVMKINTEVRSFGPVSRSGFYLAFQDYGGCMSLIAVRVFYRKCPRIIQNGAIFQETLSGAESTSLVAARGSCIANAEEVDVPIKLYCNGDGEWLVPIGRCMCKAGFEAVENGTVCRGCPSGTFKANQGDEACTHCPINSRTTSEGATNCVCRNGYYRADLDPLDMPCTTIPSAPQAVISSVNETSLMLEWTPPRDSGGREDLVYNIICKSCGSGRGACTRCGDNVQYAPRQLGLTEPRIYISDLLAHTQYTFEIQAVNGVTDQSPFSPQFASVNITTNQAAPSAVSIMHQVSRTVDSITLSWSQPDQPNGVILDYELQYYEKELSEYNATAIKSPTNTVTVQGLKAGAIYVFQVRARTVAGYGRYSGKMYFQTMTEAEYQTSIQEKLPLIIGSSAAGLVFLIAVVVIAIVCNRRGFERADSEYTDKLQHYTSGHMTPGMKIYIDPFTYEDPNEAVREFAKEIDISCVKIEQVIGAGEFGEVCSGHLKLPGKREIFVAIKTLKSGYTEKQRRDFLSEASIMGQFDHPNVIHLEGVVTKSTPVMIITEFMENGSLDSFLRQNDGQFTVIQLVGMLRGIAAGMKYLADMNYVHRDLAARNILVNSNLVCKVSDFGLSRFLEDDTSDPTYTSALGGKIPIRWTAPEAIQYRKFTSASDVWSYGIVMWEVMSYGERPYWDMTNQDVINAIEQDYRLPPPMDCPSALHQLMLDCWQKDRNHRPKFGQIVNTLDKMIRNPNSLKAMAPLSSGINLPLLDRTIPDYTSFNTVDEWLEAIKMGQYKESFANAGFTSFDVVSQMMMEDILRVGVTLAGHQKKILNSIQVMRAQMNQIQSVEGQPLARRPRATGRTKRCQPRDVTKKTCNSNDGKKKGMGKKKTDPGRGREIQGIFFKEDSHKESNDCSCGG
The experiment in a line: Inhibition of EphB2 at 0.1 uM; values are per cent of control.

Assay [4] has as its target Mitogen-activated protein kinase 8 (Homo sapiens) (UniProt P45983). Nature of the assay: Inhibition of JNK1a1 at 0.1 uM; values are per cent of control.
In assay [5] the target is T3, cGMP-dependent protein kinase 1 (Homo sapiens) (UniProt Q13976).
T3 sequence (whole entry): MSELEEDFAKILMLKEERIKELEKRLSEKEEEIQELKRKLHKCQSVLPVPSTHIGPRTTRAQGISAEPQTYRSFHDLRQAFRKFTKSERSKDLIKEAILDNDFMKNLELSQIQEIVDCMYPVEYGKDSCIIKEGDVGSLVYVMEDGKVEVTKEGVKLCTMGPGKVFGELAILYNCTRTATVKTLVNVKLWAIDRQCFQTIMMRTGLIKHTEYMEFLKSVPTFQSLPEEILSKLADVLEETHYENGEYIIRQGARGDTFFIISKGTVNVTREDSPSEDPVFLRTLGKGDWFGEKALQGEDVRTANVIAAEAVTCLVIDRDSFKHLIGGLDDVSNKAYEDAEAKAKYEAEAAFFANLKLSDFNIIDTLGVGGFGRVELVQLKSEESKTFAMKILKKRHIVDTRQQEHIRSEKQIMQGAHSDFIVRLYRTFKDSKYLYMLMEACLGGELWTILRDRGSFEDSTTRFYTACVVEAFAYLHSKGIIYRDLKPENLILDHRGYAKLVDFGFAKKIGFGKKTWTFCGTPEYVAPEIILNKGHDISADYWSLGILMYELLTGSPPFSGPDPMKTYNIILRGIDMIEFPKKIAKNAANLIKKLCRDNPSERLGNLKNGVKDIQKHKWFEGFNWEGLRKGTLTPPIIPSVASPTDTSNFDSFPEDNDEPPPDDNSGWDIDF
Nature of the assay: Inhibition of PKG1beta at 0.1 uM; values are per cent of control.

SMILES strings stand for the structures.

Mitogen-activated protein kinase 8 (Homo sapiens), sequence (P45983 whole entry): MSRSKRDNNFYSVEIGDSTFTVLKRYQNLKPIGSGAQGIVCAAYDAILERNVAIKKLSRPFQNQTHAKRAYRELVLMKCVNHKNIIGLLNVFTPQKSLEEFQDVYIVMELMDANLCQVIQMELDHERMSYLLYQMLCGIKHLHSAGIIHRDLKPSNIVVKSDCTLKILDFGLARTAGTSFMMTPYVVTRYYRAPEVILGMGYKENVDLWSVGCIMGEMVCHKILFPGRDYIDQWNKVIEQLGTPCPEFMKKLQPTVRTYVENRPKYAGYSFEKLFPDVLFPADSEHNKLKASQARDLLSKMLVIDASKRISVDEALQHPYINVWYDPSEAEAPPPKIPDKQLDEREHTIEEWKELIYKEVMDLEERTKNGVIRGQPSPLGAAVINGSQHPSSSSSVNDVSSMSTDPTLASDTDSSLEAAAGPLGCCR
Ephrin type-A receptor 7 (Homo sapiens), sequence (Q15375 28-998 limits assumed): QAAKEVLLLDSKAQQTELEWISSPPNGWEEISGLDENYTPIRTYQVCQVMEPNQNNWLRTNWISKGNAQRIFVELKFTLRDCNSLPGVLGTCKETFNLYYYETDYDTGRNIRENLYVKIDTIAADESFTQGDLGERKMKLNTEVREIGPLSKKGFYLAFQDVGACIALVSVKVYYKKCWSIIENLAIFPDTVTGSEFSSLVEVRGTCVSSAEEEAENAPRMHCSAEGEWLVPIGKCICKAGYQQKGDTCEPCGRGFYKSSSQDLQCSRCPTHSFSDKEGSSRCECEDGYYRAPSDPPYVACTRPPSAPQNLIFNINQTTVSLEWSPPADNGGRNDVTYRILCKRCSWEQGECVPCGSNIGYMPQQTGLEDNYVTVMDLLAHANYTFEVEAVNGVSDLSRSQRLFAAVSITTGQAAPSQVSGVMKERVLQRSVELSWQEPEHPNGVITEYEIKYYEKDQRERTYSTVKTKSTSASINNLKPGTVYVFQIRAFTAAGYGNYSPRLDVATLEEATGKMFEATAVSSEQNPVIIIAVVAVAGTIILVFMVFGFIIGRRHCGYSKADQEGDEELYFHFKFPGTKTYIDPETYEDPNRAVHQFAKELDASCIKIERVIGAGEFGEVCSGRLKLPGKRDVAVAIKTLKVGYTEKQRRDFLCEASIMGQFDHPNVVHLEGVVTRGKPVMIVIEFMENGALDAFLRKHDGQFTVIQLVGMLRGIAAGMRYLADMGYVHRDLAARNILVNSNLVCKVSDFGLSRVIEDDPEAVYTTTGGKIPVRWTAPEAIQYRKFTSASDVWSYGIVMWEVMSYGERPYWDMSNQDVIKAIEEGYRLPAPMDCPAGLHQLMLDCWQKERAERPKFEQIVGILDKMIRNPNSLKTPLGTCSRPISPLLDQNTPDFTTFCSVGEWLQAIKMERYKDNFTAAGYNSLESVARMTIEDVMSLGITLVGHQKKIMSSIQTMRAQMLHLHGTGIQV

As for `Cc1ccc2cc(-c3n[nH]c4ccc(NC5CCNC5)cc34)[nH]c2c1` (stereo not given), the residual activity was -7% in assay [1]; 75% in assay [2]; 87% in assay [3]; 101% in assay [4]; 95% in assay [5].
In the case of `Cc1ccc2cc(-c3n[nH]c4ccc(NC5CCN(Cc6ccccc6)CC5)cc34)[nH]c2c1`, the residual activity in assay [1] is 8%; in assay [2], 75%; in assay [3], 99%; in assay [4] it was 83%; in assay [5] it was 83%.

Source of the values: ChEMBL document CHEMBL1681705, “Optimisation of ITK inhibitors through successive iterative design cycles” (Bioorg Med Chem Lett, 2011).
